Results as given in patent US20230111914A1, “SYNTHETIC TRITERPENOIDS WITH NITROGEN-BASED SUBSTITUENTS AT C-17 AND METHODS OF USE THEREOF” (REATA PHARMACEUTICALS, INC., priority 2019, published 2023).
Where “and” joins values, the source holds several entries; their conditions need not be identical. Identical values can stand only once. Like-named read-outs stand apart in the source and are kept apart here. Marks after values point to notes of the source that are not given here.

What was measured:
[1] = test system: IFNγ-induced NO production in RAW 264.7 cells; test: Nitric oxide suppression assay (IFNγ-induced NO production, Griess nitrite readout); type: cell-based, mouse; conditions: for IC50: Mus musculus, RAW264.7, RAW 264.7 cells, read-out: NO IC50
[2] = test system: AREc32 reporter cell line (luciferase reporter under eight copies of the rat GSTA2 ARE sequence); test: AREc32 luciferase reporter activation; type: cell-based, human; conditions: for EC (2-fold): Homo sapiens, Arec32, concentration that increases the luminescence signal 2-fold above vehicle, 19 h treatment, read-out: AREc32 EC2X (Mean ± SD); for AREc32 Relative to CC in Same Experiment (Mean ± SD): average of ratios from three replicate experiments
[3] = target: T1, CYP3A4 (Homo sapiens, UniProt P08684); test: CYP3A4 (midazolam) inhibition in human liver microsomes; type: in vitro ADME; conditions: probe midazolam; human liver microsomes 0.1 mg/mL, midazolam substrate, 1 μM test compound, 37° C. 10 min
T1 construct: containing 0.1 mg/mL human liver microsomes; from tissue; host or cells: human liver microsomes
Description: Methods. Several compounds were evaluated for CYP3A4 (midazolam) inhibition in human liver microsomes at 1 μM. CYP3A4 inhibition was tested using an in vitro assay as generally described in Dierks et al. (Drug Metabolism Deposition, 29:23-29, 2001, which is incorporated by reference herein). Each sample, containing 0.1 mg/mL human liver microsomes, […] as substrate, and 1 μM of test compound, was incubated at 37° C. for 10 min. Following incubation, the metabolite 1-hydroxymidazolam was measured using HPLC-MS/MS. Peak areas corresponding to the metabolite of the substrate were recorded. The percent of control activity was then calculated by comparing the peak area obtained in the presence of the test compound to that obtained in the absence of the test compound. Subsequently, the percent inhibition was calculated by subtracting the percent control activity from 100 for each compound.

[4] = 2 h pretreatment, 20 ng/mL interferon gamma 24 h, average of trials per footnote

T1 sequence (P08684 whole entry): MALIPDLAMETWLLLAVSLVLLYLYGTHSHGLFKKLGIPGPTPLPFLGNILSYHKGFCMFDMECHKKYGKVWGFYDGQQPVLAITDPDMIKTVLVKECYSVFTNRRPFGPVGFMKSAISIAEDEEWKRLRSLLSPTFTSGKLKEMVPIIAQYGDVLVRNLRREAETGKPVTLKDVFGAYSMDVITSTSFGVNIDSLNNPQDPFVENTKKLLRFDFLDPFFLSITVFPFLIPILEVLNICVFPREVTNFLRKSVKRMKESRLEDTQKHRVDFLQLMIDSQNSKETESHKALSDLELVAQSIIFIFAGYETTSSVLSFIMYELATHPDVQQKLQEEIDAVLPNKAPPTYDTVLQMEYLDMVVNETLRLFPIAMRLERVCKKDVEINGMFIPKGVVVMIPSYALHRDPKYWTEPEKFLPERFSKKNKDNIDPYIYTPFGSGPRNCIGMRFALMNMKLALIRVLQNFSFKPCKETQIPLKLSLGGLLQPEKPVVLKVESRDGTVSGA

| SMILES | NO IC50 Rel. to RTA 402 [1] | times more active (NO IC50) than 63236 relative to RTA 402 [1] | times more active (NO IC50) than 63866 relative to RTA 402 [1] | IC50 [1, 4] [nM] | AREc32 EC2X Relative to RTA 402 (Mean ± SD) [2] | EC (2-fold) [2] [µM] | inhibition at 10 min, 1 µM [3] [%] | times more active (NO IC50) than CC2 relative to RTA 402 [1] | AREc32 Relative to CC in Same Experiment (Mean ± SD) ([2]; comparison compound CC2) | IC50 ([1]; interferon gamma) [nM] | AREc32 Relative to CC in Same Experiment (Mean ± SD) ([2]; comparison compound CC4) | times more active (NO IC50) than CC4 relative to RTA 402 [1] | times more active (NO IC50) than 63229 relative to RTA 402 [1] |
| --- | --- | --- | --- | --- | --- | --- | --- | --- | --- | --- | --- | --- | --- |
| CC1(C)CC[C@]2(CNC(=O)C3CC3)CC[C@]3(C)[C@H](C(=O)C=C4[C@@]5(C)C=C(C#N)C(=O)C(C)(C)[C@@H]5CC[C@]43C)[C@@H]2C1 [Compound T4] | 0.26 fold and 0.26 ± 0.08^h fold | more than 220 times | roughly 4.5 times | 0.51 | 0.3 ± 0.08^b fold | 0.0032 ± 0.00032 | 30.7 |  |  |  |  |  |  |
| CC1(C)CC[C@]2(CN3CCC3=O)CC[C@]3(C)[C@H](C(=O)C=C4[C@@]5(C)C=C(C#N)C(=O)C(C)(C)[C@@H]5CC[C@]43C)[C@@H]2C1 [Compound T10] | 0.45 ± 0.08^g fold |  |  | 1.12 ± 0.44 | 0.5 ± 0.13^c fold | 0.0052 ± 0.00249 | 33.2 |  |  |  |  |  |  |
| CC1(C)CC[C@]2(CN3CCCC3=O)CC[C@]3(C)[C@H](C(=O)C=C4[C@@]5(C)C=C(C#N)C(=O)C(C)(C)[C@@H]5CC[C@]43C)[C@@H]2C1 [Compound T11] | 0.58 ± 0.18^f fold |  |  | 1.08 ± 0.44 | 0.5 ± 0.08^d fold | 0.0067 ± 0.0017 | 12.5 |  |  |  |  |  |  |
| CC1(C)CC[C@]2(Cn3cnnn3)CC[C@]3(C)[C@H](C(=O)C=C4[C@@]5(C)C=C(C#N)C(=O)C(C)(C)[C@@H]5CC[C@]43C)[C@@H]2C1 [Compound T18] | 0.76 fold and 0.76 ± 0.10^e fold |  |  | 0.92 | 0.6 ± 0.05^g fold | 0.0057 ± 0.00044 | 46.5 | more than twice as active | 0.356 ± 0.015 |  |  |  |  |
| CC1(C)CC[C@]2(Cn3ccnn3)CC[C@]3(C)[C@H](C(=O)C=C4[C@@]5(C)C=C(C#N)C(=O)C(C)(C)[C@@H]5CC[C@]43C)[C@@H]2C1 [Compound T19] | 0.93 fold and 0.93 ± 0.22^e fold |  |  | 1.11 |  | 0.0084 ± 0.00126 | 33.8 | roughly 1.6 times | 0.522 ± 0.052 | 1.11 |  |  |  |
| CC1(C)CC[C@]2(Cn3cccn3)CC[C@]3(C)[C@H](C(=O)C=C4[C@@]5(C)C=C(C#N)C(=O)C(C)(C)[C@@H]5CC[C@]43C)[C@@H]2C1 [Compound T20] | 1.93 ± 0.41^e fold |  |  | 3.28 ± 0.32 |  | 0.0153 ± 0.00084 | 13.2 |  | 0.954 ± 0.101 |  |  |  |  |
| CC1(C)CC[C@]2(Cn3cncn3)CC[C@]3(C)[C@H](C(=O)C=C4[C@@]5(C)C=C(C#N)C(=O)C(C)(C)[C@@H]5CC[C@]43C)[C@@H]2C1 [Compound T21] | 0.57 ± 0.07^e fold |  |  | 1.18 ± 0.21 | 1.1 ± 0.20^g fold | 0.0105 ± 0.00165 | 18.9 |  | 0.649 ± 0.070 |  |  |  |  |
| CC1(C)CC[C@]2(n3cncn3)CC[C@]3(C)[C@H](C(=O)C=C4[C@@]5(C)C=C(C#N)C(=O)C(C)(C)[C@@H]5CC[C@]43C)[C@@H]2C1 [Compound T33] | 1.35 ± 0.26^d fold |  |  | 5.62 ± 1.81 | 1.2 ± 0.18^f fold | 0.0136 ± 0.00131 | 49 |  |  |  | 0.484 ± 0.060 |  |  |
| CC1(C)CC[C@]2(n3ccnn3)CC[C@]3(C)[C@H](C(=O)C=C4[C@@]5(C)C=C(C#N)C(=O)C(C)(C)[C@@H]5CC[C@]43C)[C@@H]2C1 [Compound T35] | 0.64 fold and 0.64 ± 0.04^e fold |  |  | 1.3 | 0.6 ± 0.18^f fold | 0.0071 ± 0.00073 | 41.7 |  |  |  | 0.262 ± 0.020 | ~4 times |  |
| CC1(C)CC[C@]2(n3cnnn3)CC[C@]3(C)[C@H](C(=O)C=C4[C@@]5(C)C=C(C#N)C(=O)C(C)(C)[C@@H]5CC[C@]43C)[C@@H]2C1 [Compound T36] | 0.77 fold and 0.77 ± 0.16^e fold |  |  | 1.96 | 0.5 ± 0.13^f fold | 0.0056 ± 0.00059 | 52.8 |  |  |  | 0.191 ± 0.009 | roughly 3.1 times | greater than 98.5 times |
| CC1(C)CC[C@]2(n3ccnc3)CC[C@]3(C)[C@H](C(=O)C=C4[C@@]5(C)C=C(C#N)C(=O)C(C)(C)[C@@H]5CC[C@]43C)[C@@H]2C1 [Compound T37] | 1.37 ± 0.26^e fold |  |  | 3.22 ± 1.52 | 2.1 ± 0.50^f fold | 0.0243 ± 0.0027 | 86.5 |  |  |  | 0.878 ± 0.094 |  |  |
| CNC(=O)c1cn([C@]23CCC(C)(C)C[C@H]2[C@H]2C(=O)C=C4[C@@]5(C)C=C(C#N)C(=O)C(C)(C)[C@@H]5CC[C@@]4(C)[C@]2(C)CC3)nn1 [Compound T41] | 1.19 ± 0.22^d fold |  |  | 4.96 ± 1.58 | 0.8 ± 0.16^f fold | 0.0094 ± 0.00135 | 17.1 |  |  |  | 0.320 ± 0.037 |  |  |
| CC1(C)CC[C@]2(n3cc(CF)nn3)CC[C@]3(C)[C@H](C(=O)C=C4[C@@]5(C)C=C(C#N)C(=O)C(C)(C)[C@@H]5CC[C@]43C)[C@@H]2C1 [Compound T43] | 0.66 fold and 0.66 ± 0.09^d fold |  |  | 2.68 | 0.7 ± 0.15^f fold | 0.0085 ± 0.00055 | 17 |  |  |  | 0.299 ± 0.015 | roughly 3.7 times |  |
| CC1(C)CC[C@]2(n3cc(C(F)F)nn3)CC[C@]3(C)[C@H](C(=O)C=C4[C@@]5(C)C=C(C#N)C(=O)C(C)(C)[C@@H]5CC[C@]43C)[C@@H]2C1 [Compound T44] | 1.07 ± 0.11^d fold |  |  | 4.39 ± 0.73 | 0.9 ± 0.15^f fold | 0.0106 ± 0.00083 | 29.1 |  |  |  | 0.387 ± 0.037 |  |  |
| Cc1cn(C[C@]23CCC(C)(C)C[C@H]2[C@H]2C(=O)C=C4[C@@]5(C)C=C(C#N)C(=O)C(C)(C)[C@@H]5CC[C@@]4(C)[C@]2(C)CC3)nn1 [Compound T48] | 1.19 fold and 1.19 ± 0.18^e fold |  |  | 2.5 | 1.3 ± 0.21^g fold | 0.0129 ± 0.00143 | 29.8 | roughly 1.3 times | 0.802 ± 0.050 |  |  |  |  |
